These results are taken from patent publication US8114989B2, “Pyrazolylaminopyrimidine derivatives useful as tyrosine kinase inhibitors” (AstraZeneca AB, priority 2005, dated 2012).

This assay deals with T1, human Trk A kinase (Homo sapiens, UniProt P04629).
T1 construct: HIS; made in house; host or cells: SF9 insect cells
The experiment in a line: Trk A Assay (Alphascreen kinase assay). Type of assay: biochemical. The following applies: 70 μM ATP, PolyEY-biotin substrate, 20 minutes, room temperature, read-out: Trk inhibitory activity IC50. As for the experimental part:
After incubation of the kinase with a biotinylated substrate and adenosine triphosphate (ATP) for 20 minutes at room temperature, the kinase reaction was stopped by the addition of 30 mM ethylenediaminetetraacetic acid (EDTA). The reaction was performed in 384 well microtitre plates and the reaction products were detected with the addition of strepavidin coated Donor Beads and phosphotyrosine-specific antibodies coated Acceptor Beads using the EnVision Multilabel Plate Reader after an overnight incubation at room temperature.
(In Alpha technology, singlet oxygen from a donor bead excites a nearby acceptor bead.)

T1 sequence (P04629 442-796): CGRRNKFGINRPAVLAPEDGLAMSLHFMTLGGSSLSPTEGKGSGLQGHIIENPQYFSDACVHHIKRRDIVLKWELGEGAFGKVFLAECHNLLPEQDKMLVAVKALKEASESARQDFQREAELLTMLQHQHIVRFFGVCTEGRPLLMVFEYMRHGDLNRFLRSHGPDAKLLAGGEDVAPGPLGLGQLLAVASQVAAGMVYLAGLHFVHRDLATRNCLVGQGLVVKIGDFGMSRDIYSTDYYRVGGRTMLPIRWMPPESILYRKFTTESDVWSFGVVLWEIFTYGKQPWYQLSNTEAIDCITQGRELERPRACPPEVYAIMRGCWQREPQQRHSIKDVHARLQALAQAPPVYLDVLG

In general, IC50 refers to the concentration at which inhibition is half-maximal. As for `C[C@H](Nc1ncc(F)c(Nc2cc(C3CC3)[nH]n2)n1)c1ccc(F)cn1` [Example 3, (S)-5-Fluoro-N^1-(5-cyclopropyl-1H-pyrazol-3-yl)-N^2-(1-(5-fluoropyridin-2-yl)ethyl)pyrimidine-2,4-diamine], the IC50 worked out at 10 nM.
